pIC50: −log10 of the molar value. Ends that are not written are not given here.
What was measured:
[1] = test system: murine macrophages RAW 264.7; conditions: 24 h
In short: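 RAW 264.7 murine macrophages seeded at 4 × 10^4 cells/well in DMEM with 2% FBS, then exposed to peptides (2–128 μM) for 24 h at 37 °C. Viability by MTT (0.5 mg/mL, 4 h) reduction to formazan, dissolved in acidified isopropanol, read at OD570; untreated cells as negative control.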

E. coli AIC221 = conditions: E. coli / AIC221 / Prot. d; Prot. d
[2] = test system: E. coli E1098 (GEN, AMI, IMI, MER); conditions: E. coli / E1098 / GEN, AMI, IMI, MER / Prot. c; Prot. c
E. coli ATCC 11775 = conditions: E. coli / ATCC 11775 / Prot. d; Prot. d
E. coli AIC222 (COL) = conditions: E. coli / AIC222 / COL / Prot. d; Prot. d
[3] = single intraperitoneal dose at 10 times the MIC
Method: Neutropenic mice were infected intramuscularly (in the right thigh) with 10^6 cells per mL of Gram-negative A. baumannii (ATCC 19606).
(a) Schematic of the deep thigh infection model in which bacteria are injected intramuscularly at day 4 and peptides are administered intraperitoneally also at day 4 to assess their anti-infective activity. Mice were euthanized 4 days postinfection (day 8). Each group consisted of six mice (n = 6), and the bacterial loads used to infect the mice derived from three different inocula. […] Polymyxin B (0.006 mg/kg) and levofloxacin (0.014 mg/kg) were used as the reference antibiotics. Statistical significance was done using one-way ANOVA followed by Dunnett’s test. Violin plots represent the median, upper quartile, and lower quartile. (c) Mouse weight was monitored to exclude possible toxic effects of the peptides.
Six-week-old female CD-1 mice (obtained from Charles River; stock number 18679700-022) underwent neutropenia induction via two intraperitoneal doses of cyclophosphamide (150 mg kg^–^1) administered with a 72 h interval. One day later, the mice received an intramuscular injection containing A. baumannii ATCC 19606 (10^6 CFU mL^–1) in the right thigh. Bacteria were cultured in LB broth, washed twice with PBS (pH 7.4), and resuspended to the desired concentration. […] Polymyxin B (0.006 mg/kg) and levofloxacin (0.014 mg/kg) were used as the reference antibiotics. Prior to each injection, mice were anesthetized with isoflurane and their respiratory rate and pedal reflexes were monitored. Subsequently, we observed the infection establishment and euthanized the mice. The infected area was excised 4 days postinfection (i.e., 8 days after the beginning of the experiment), homogenized using a bead beater for 20 min (25 Hz), and 10-fold serially diluted for CFU quantification on MacConkey agar plates. Each experimental group comprised three mice. All experiments were conducted blindly, and no animals were excluded from the analysis. Statistical significance was assessed using one-way ANOVA followed by Dunnett’s test on log10-transformed data to mitigate outlier effects; p values are reported for each group, with all groups compared to the untreated control group.

[4] = AFM imaging of supported lipid bilayers; conditions: P:L 1:500 (1 μM peptide)
Method: The SLBs were composed of POPC:POPG (1:1 mol/mol) lipids, the same composition used in the dye leakage assay. […] The pores were stable for an investigation period of 2 h and were visibly more numerous than those produced by LP1.[29]
Effects of peptides on the SLBs composed of POPC:POPG (1:1 mol/mol) lipids was investigated using AFM. LUVs were prepared in lipid dissolution buffer (50 mM Tris–HCl and 50 mM KCl) following a dye leakage assay protocol without calcein. Vesicles were sonicated for 30 min at 25 °C and extruded through a 50 nm pore size filter to form small unilamellar vesicles (SUVs). Following the vesicle deposition method,[103] SLBs were formed on mica using SUVs in SLB-forming buffer (50 mM Tris–HCl and 300 mM KCl) and 5 mM CaCl2, mounting a total volume of 150 μL on mica. After 1 h incubation at 25 °C, mica was washed 10 times with SLB-forming buffer and subjected to AFM analysis. The investigated P:L ratio was 1:500 (mol/mol). Bruker Dimension Icon AFM (USA) equipped with a PeakForce-HIRS-F-B silicon nitride probe (spring constant 0.12 N/m) was used to capture topographic images. PeakForce Quantitative NanoMechanic hybrid mode was used with 2 kHz frequency and 25 nm amplitude using set point <100 pN. The scan rate was 1 Hz using 512 samples/line. […]

MCF-7 cells = assay: Immunoblotting of cleaved PARP and caspase-3; format: cell-based, human; conditions: 1 h treatment; media of different pH
Method: Furthermore, immunoblotting detection of cleaved PARP and caspase-3 markers confirmed the induction of apoptosis in MCF-7 cells by the peptides (Figure S10c).
MCF-7 cells were seeded at 2.5 × 10^5 cells/well in a 24-well plate 1 day before the experiment. Cells were treated with either peptides or PBS alone (negative control) and cultured in different media for 1 h. Cells were lysed using a buffer consisting of 1% SDS, 50 mM Tris–HCl (pH 6.8), and 10% glycerol with phosphatase and protease inhibitors. The protein concentration was determined by using the DC Protein Assay (Bio-Rad). Proteins were separated by SDS-PAGE and transferred to the PVDF membrane with a 0.45 μm pore size. The membranes were incubated with primary antibodies to detect cleaved PARP (no. 5625, 1:1000, Cell Signaling), total PARP (no. 9542, 1:2000, Cell Signaling), cleaved caspase-3 (no. 9664, 1:1000, Cell Signaling), or β-actin (no. 4970, 1:2000; Cell Signaling). Secondary HRP-linked antirabbit antibody (1:2000, Cell Signaling) was used to detect primary antibodies. Signal was detected using Clarity Western ECL Substrate (BioRad) and UVITEC Alliance (Uvitec).

[5] = test system: panel of 20 different human cancer and 2 noncancerous cell lines; format: cell-based; conditions: 72 h
Method: First, we tested LP40 and LP1 for anticancer activity at the physiological pH. The peptides were screened against a panel of 20 different human cancer and 2 noncancerous cell lines using a CellTiter-Glo luminescent cell viability assay (Figure 6b). […] For few exceptional cell lines, the activity of LP40 was below 10 μM.
The CellTiter-Glo luminescent cell viability assay examining the impact of peptides on 22 different human cell lines was purchased from Reaction Biology Europe GmbH (Germany). Cells were cultured in different media (Table S1), seeded into a flat-bottom 96-well plate, and incubated at 37 °C. After overnight incubation, test compounds were added with 1% PBS/0.3% Tween 20 and the reference compound bortezomib was added with 0.1% DMSO. Negative controls were solvents alone, and positive control was 10 μM staurosporine. After 72 h of incubation at 37 °C, 5 or 10% CO2 (dependent on the medium), and 1 h equilibration at room temperature, well plates were treated with CellTiter-Glo reagent (Promega) for an hour and luminescence was measured using a luminometer.

[6] = test system: A. baumannii Z13 (GEN, AMI, IMI, MER); conditions: A. baumannii / Z13 / GEN, AMI, IMI, MER / Prot. c; Prot. c
[7] = test system: K. pneumoniae 4371 (GEN, AMI, IMI, MER); conditions: K. pneumoniae / 4371 / GEN, AMI, IMI, MER / Prot. c; Prot. c

| Substance | pIC50 [1] | MIC (E. coli AIC221) | MIC [2] | MIC (E. coli ATCC 11775) | MIC (E. coli AIC222 (COL)) | Change in mouse weight [3] | Membrane defects or pores formed on SLBs [4] | Cleaved PARP and caspase-3 (apoptosis) (MCF-7 cells) | pIC50 [5] | MIC [6] | MIC [7] |
| --- | --- | --- | --- | --- | --- | --- | --- | --- | --- | --- | --- |
| KKKKLKKILKKLFQFINQLDNQLQDIKKKK-NH2 [LP18] | 4.60 | 1.6 µM | 2 µM | 1.6 µM | 1.6 µM | no significant change in mouse weight | significantly higher number of membrane defects or pores than LP1 |  |  |  |  |
| H-HHHHLKKILKKLFQFINQLDNQLQDIHHHH-OH [LP40] |  |  |  |  |  |  |  | higher at pH 6 | < 4.00 |  |  |
| KKKKLKKILKKLFQFINQLDNQLQDIKQNK-NH2 [LP1] | 4.36 |  |  |  |  | no significant change in mouse weight |  |  |  | 4 µM | 16 µM |
